Source: patent US12637418B2, “Heterocyclic compounds as antagonist of NMDA” (TAKEDA PHARMACEUTICAL COMPANY LIMITED, priority 2019, dated 2026)

Molecular target: NMDA receptor composed of four subunits including 2 sets of heterodimers of NR1 and NR2B (human GRIN1 and GRIN2B expressed in HEK293 cell) (Homo sapiens, UniProt Q13224)
Test: NR2B Ca^2+ influx assay
Type: cell-based
Conditions: 10 μM final compound concentration; 30 μM glutamic acid and 30 μM glycine; HEK293 cells expressing GRIN1 and GRIN2B; Fluo-4 fluorescence
From the text: To confirm the “antagonistic action on an NMDA receptor containing the NR2B subunit” of the compound of the present invention, human embryonic kidney cell expressing the “NMDA receptor composed of four subunits including 2 sets of heterodimers of NR1 and NR2B”, specifically HEK293 cell expressing human glutamate ionotropic receptor NMDA type subunit 1 (GRIN1) and human glutamate ionotropic receptor NMDA type subunit 2B (GRIN2B), was used and the activation suppressive effect on the receptors was measured.
HEK293 cells that express GRIN1 and GRIN2B were purchased from ChanTest (Human NMDA (NR1/NR2B) Receptor-expressing, stable replicating cell line (HEK293) catalog No. CT6121).
As an index of the NMDA receptor activation, intracellular calcium ion (Ca^2+) influx caused by the binding of glycine and glutamic acid with NR1 and NR2B, respectively, was used.
HEK293 cells that express GRIN1 and GRIN2B were cultured in DMEM/F-12 (COSMO BIO, 10-092-CM) medium added with 10% FBS (fetal bovine serum, AusGene), 100 units/mL penicillin, 100 μg/mL streptomycin, 500 μg/mL neomycin, 100 μg/mL Zeocin (registered trade mark, Invitrogen), 5 μg/mL Blasticidin in a cell culture flask in an incubator (under 37° C., 5% CO2).
The cells were detached from the flask with trypsin the day before the assay, suspended in a seeding medium (DMEM (Invitrogen, 31053) added with 10% FBS, 100 units/mL penicillin, 100 μg/mL streptomycin) at 8×10^5 cells/mL, seeded by 25 μL per well in a 384-well plate (Falcon, 356663) at 20000 cells/well, and cultured overnight in an incubator. On the day of the assay, tetracycline (Wako Pure Chemical Industries, Ltd., 209-16561) was diluted with the seeding medium at 2 μg/mL, added at 25 μL/well to the plate seeded with the cells, and cultured for 2 hr in an incubator. Thereafter, the medium was removed, and the cells were washed with 50 μL/well assay buffer (137 mM NaCl, 4 mM KCl, 1.8 mM CaCl2, 10 mM HEPES (pH 7.2), 10 mM Glucose, 0.1% BSA). Then, a loading buffer (assay buffer added with 2.5 μM Fluo-4AM, 2 mM Amaranth, 1 mM Tartrazine) was added at 25 μL/well, and the cells were incubated in the incubator for 30 min, and at room temperature for 15 min. A solution of the Example compound diluted with the above-mentioned assay buffer at 30 μM (final concentration 10 μM) was added at 25 μL/well, and the cells were left standing for 15 min at room temperature. Using FDSS7000EX/μCELL (Hamamatsu Photonics K.K.), an assay buffer containing 30 μM glutamic acid and 30 μM glycine was added at 25 μL/well, and fluorescence signals with wavelengths of Excitation 480 nm and Emission 540 nm were measured every 3 seconds for 5 min. The inhibitory activity was calculated as a relative activity value (inhibitory rate) that inhibits 100% of the cumulative value of the fluorescence value of a well added with an assay buffer free of glutamic acid, glycine, relative to the cumulative value of the fluorescence value of each well.

Chain of NMDA receptor composed of four subunits including 2 sets of heterodimers of NR1 and NR2B (human GRIN1 and GRIN2B expressed in HEK293 cell) (Q13224 27-1484, other chains not shown): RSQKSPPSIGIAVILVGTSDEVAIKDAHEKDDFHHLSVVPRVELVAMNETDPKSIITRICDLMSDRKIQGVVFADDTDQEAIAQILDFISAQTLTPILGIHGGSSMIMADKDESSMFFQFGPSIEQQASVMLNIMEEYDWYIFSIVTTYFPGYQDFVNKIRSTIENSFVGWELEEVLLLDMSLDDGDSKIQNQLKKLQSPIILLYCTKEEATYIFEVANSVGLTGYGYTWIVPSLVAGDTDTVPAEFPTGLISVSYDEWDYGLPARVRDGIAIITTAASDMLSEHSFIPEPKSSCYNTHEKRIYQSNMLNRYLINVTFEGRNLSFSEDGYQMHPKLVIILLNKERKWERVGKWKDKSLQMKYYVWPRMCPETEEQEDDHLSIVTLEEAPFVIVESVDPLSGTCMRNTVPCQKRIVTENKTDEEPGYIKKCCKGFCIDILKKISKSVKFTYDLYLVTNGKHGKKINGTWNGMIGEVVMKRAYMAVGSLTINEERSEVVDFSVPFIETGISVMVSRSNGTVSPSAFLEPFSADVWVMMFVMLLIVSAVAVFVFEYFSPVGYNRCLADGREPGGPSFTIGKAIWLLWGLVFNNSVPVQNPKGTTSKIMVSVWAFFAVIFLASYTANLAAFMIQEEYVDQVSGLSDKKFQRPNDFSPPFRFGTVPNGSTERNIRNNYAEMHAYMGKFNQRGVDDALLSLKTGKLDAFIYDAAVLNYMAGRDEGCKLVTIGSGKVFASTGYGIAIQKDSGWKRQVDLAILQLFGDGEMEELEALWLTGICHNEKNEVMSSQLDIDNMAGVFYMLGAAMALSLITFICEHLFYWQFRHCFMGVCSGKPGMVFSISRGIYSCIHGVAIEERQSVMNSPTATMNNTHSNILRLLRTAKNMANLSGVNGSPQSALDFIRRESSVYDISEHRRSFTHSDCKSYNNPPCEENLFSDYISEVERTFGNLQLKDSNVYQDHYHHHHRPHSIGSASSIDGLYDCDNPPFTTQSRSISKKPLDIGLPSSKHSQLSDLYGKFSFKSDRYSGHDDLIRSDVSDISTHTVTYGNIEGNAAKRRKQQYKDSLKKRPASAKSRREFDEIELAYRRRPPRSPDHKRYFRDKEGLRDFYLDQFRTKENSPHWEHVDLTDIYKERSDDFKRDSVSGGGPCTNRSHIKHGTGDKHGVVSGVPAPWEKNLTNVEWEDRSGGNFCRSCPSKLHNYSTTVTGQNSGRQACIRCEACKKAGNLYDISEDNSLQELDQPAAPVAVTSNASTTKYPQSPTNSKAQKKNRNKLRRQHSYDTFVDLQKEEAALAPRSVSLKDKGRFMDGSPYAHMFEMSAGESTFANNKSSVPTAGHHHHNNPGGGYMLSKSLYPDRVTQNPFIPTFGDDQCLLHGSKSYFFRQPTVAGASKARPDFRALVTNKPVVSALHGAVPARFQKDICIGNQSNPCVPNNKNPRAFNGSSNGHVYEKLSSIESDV

| SMILES | inhibitory rate (10 μM compound concentration) |
| --- | --- |
| COc1cnc(C#N)cc1CNC(=O)c1ccc(OC(F)(F)F)cc1 [Example 29, N-[(2-cyano-5-methoxypyridin-4-yl)methyl]-4-(trifluoromethoxy)-bezamide] | 92 |
| COc1cnc(C#N)cc1CNC(=O)c1ccc(C(F)(F)F)c(F)c1 [Example 30, N-[(2-cyano-5-methoxypyridin-4-yl)methyl]-3-fluoro-4-(trifluoromethyl)-bezamide] | 87 |

Same assay, conditions: 10 μM final compound concentration; 30 μM glutamic acid and 30 μM glycine; HEK293 cells expressing GRIN1 and GRIN2B; Fluo-4 fluorescence; read-out: inhibitory rate (10 μM compound concentration)

| inhibition at 10 µM [%] | SMILES |
| --- | --- |
| 86 | N#Cc1ccc(Br)c(CNC(=O)c2ccc(OC(F)(F)F)c(F)c2)c1 [Example 1, N-[(2-bromo-5-cyanophenyl)methyl]-3-fluoro-4-(trifluoromethoxy)benzamide] |
| 92 | N#Cc1ccc(Br)c(CNC(=O)c2cnc(OC(F)F)c(F)c2)c1 [Example 2, N-[(2-bromo-5-cyanophenyl)methyl]-6-(difluoromethoxy)-5-fluoropyridine-3-carboxamide] |
| 93 | N#Cc1ccc(Br)c(CNC(=O)c2ccc(OC(F)F)c(F)c2)c1 [Example 3, N-[(2-bromo-5-cyanophenyl)methyl]-4-(difluoromethoxy)-3-fluorobenzamide] |
| 94 | N#Cc1ccc(C2CC2)c(CNC(=O)c2ccc(OC(F)(F)F)c(F)c2)c1 [Example 4, N-[(5-cyano-2-cyclopropylphenyl)-methyl]-3-fluoro-4 (trifluoromethoxy)-benzamide] |
| 95 | N#Cc1ccc(C2CC2)c(CNC(=O)c2cnc(OC(F)F)c(F)c2)c1 [Example 5, N-[(5-cyano-2-cyclopropylphenyl)-methyl]-6-(difluoromethoxy)-5-fluoropyridine-3-carboxamide] |
| 93 | N#Cc1ccc(C2CC2)c(CNC(=O)c2ccc(OC(F)F)c(F)c2)c1 [Example 6, N-[(5-cyano-2-cyclopropylphenyl)-methyl]-4-(difluoromethoxy)-3-fluorobenzamide] |
| 94 | COc1ccc(C#N)cc1CNC(=O)c1cnc(OC(F)F)c(F)c1 [Example 7, N-[(5-cyano-2-methoxyphenyl)methyl]-6-(difluoromethoxy)-5-fluoropyridine-3-carboxamide] |
| 83 | Cc1ccc(C#N)cc1CNC(=O)c1cnc(OC(F)F)c(F)c1 [Example 8, N-[(5-cyano-2-methylphenyl)-methyl]-6-(difluoromethoxy)-5-fluoropyridine-3-carboxamide] |
| 95 | COc1ccc(C#N)cc1CNC(=O)c1ccc(OC(F)F)c(F)c1 [Example 10, N-[(5-cyano-2-methoxyphenyl)-methyl]-4-(difluoromethoxy)-3-fluorobenzamide] |
| 96 | COc1ccc(C#N)cc1CNC(=O)c1ccc(OC(F)(F)F)c(F)c1 [Example 11, N-[(5-cyano-2-methoxyphenyl)-methyl]-3-fluoro-4-(trifluoromethoxy)-benzamide] |
| 91 | N#Cc1ccc(F)c(CNC(=O)c2cnc(OC(F)F)c(F)c2)c1 [Example 12, N-[(5-cyano-2-fluorophenyl)methyl]-6-(difluoromethoxy)-5-fluoropyridine-3-carboxamide] |
| 93 | N#Cc1ccc(OCC(F)(F)F)c(CNC(=O)c2cnc(OC(F)F)c(F)c2)c1 [Example 13, N-{[5-cyano-2-(2,2,2-trifluoroethoxy)-phenyl]-methyl}-6-(difluoromethoxy)-5-fluoropyridine-3-carboxamide] |
| 92 | N#Cc1ccc(OCC(F)F)c(CNC(=O)c2cnc(OC(F)F)c(F)c2)c1 [Example 14, N-{[5-cyano-2-(2,2-difluoroethoxy)-phenyl]-methyl}-6-(difluoromethoxy)-5-fluoropyridine-3-carboxamide] |
| 89 | COc1c(C#N)ccc(F)c1CNC(=O)c1cnc(OC(F)F)c(F)c1 [Example 15, N-[(3-cyano-6-fluoro-2-methoxyphenyl)-methyl]-(difluoromethoxy)-5-fluoropyridine-3-carboxamide] |
| 94 | COc1ncc(C#N)cc1CNC(=O)c1ccc(C(F)(F)F)s1 [Example 16, N-[(5-cyano-2-methoxypyridin-3-yl)methyl]-5-(trifluoromethyl)thiophene-2-carboxamide] |
| 66 | Cc1c(C#N)ccc(F)c1CNC(=O)c1cnc(OC(F)F)c(F)c1 [Example 18, N-[(3-cyano-6-fluoro-2-methylphenyl)-methyl]-6-(difluoromethoxy)-5-fluoropyridine-3-carboxamide] |
| 89 | COc1ccc(C#N)nc1CNC(=O)c1cnc(OC(F)F)c(F)c1 [Example 19, N-[(6-cyano-3-methoxypyridin-2-yl)methyl]-6-(difluoromethoxy)-5-fluoropyridine-3-carboxamide] |
| 97 | COc1c(F)cc(C#N)cc1CNC(=O)c1cnc(OC(F)F)c(F)c1 [Example 20, N-[(5-cyano-3-fluoro-2-methoxyphenyl)-methyl]-6-(difluoromethoxy)-5-fluoropyridine-3-carboxamide] |
| 94 | COc1ncc(C(=O)NCc2cc(C#N)cc(F)c2OC)cc1F [Example 21, N-[(5-cyano-3-fluoro-2-methoxyphenyl)-methyl]-5-fluoro-6-methoxypyridine-3-carboxamide] |
| 94 | COc1cnc(C#N)c(F)c1CNC(=O)c1cnc(OC(F)F)c(F)c1 [Example 22, N-[(2-cyano-3-fluoro-5-methoxypyridin-4-yl)methyl]-6-(difluoromethoxy)-5-fluoropyridine-3-carboxamide] |
| 98 | COc1cc(F)c(C#N)cc1CNC(=O)c1cnc(OC(F)F)c(F)c1 [Example 23, N-[(5-cyano-4-fluoro-2-methoxyphenyl)-methyl]-6-(difluoromethoxy)-5-fluoropyridine-3-carboxamide] |
| 97 | COc1cc(C#N)cc(CNC(=O)c2cnc(OC(F)F)c(F)c2)c1 [Example 24, N-[(3-cyano-5-methoxyphenyl)-methyl]-6-(difluoromethoxy)-5-fluoropyridine-3-carboxamide] |
| 89 | COc1cc(C#N)cc(CNC(=O)c2cnc(OC(F)F)c(F)c2)c1F [Example 25, N-[(5-cyano-2-fluoro-3-methoxyphenyl)-methyl]-6-(difluoromethoxy)-5-fluoropyridine-3-carboxamide] |
| 75 | COc1cc(C#N)cc(CNC(=O)c2cnc(OC)c(F)c2)c1F [Example 26, N-[(5-cyano-2-fluoro-3-methoxyphenyl)-methyl]-5-fluoro-6-methoxypyridine-3-carboxamide] |
| 77 | COc1c(CNC(=O)c2cnc(OC(F)F)c(F)c2)cc(C#N)nc1C [Example 27, N-[(6-cyano-3-methoxy-2-methyl-pyridin-4-yl)methyl]-6-(difluoromethoxy)-5-fluoropyridine-3-carboxamide] |
| 91 | COc1cnc(C#N)cc1CNC(=O)c1cnc(OC(F)F)c(F)c1 [Example 28, N-[(2-cyano-5-methoxypyridin-4-yl)methyl]-6-(difluoromethoxy)-5-fluoropyridine-3-carboxamide] |

System: not given
Test: not given
Conditions: rodents; cited from earlier work

| SMILES | number of occurrence and depth of cortical spreading depression |
| --- | --- |
| C[C@@H](CN1CCC(Cc2ccccc2)CC1)[C@@H](O)c1ccc(O)cc1 [Ro25-6981] | suppress the number of occurrence and the depth of cortical spreading depression |
